Legend:
VPS34 = target: T1, VPS34 (Homo sapiens, UniProt Q8NEB9); test: KINOMEscan; assay type: binding; settings: 2000 nM
T1 construct: DNA label (for qPCR read-out); purchased DiscoveRx (KINOMEscan scanMAX panel)

SIK = target: T2, SIK (Homo sapiens, UniProt P57059); test: KINOMEscan; assay type: binding; settings: 2000 nM
T2 construct: purchased KINOMEscan (DiscoveRx)

PLK2 = target: T3, PLK2 (Homo sapiens, UniProt Q9NYY3); test: KINOMEscan; assay type: binding; settings: 2000 nM
T3 construct: purchased DiscoveRx (KINOMEscan scanMAX panel)

[1] = Oral PK in female CD-1 mice, solution formulation; settings: oral gavage in solution, 30 mg/kg (15u series) or 16/18 mg/kg (15w series)
MRCKA = target: T4, MRCKA (Homo sapiens, UniProt Q5VT25); test: KINOMEscan; assay type: binding; settings: 2000 nM
T4 construct: DNA label (qPCR read-out); purchased KINOMEscan scanMAX panel (DiscoveRx)

[2] = target: T5, RSK3(Kin.Dom.1-N-terminal) (Homo sapiens, UniProt Q15349); test: KINOMEscan; assay type: binding; settings: 2000 nM
T5 construct: RSK3(Kin.Dom.1); purchased DiscoveRx (KINOMEscan scanMAX panel)

PHKG1 = target: T6, PHKG1 (Homo sapiens, UniProt Q16816); test: KINOMEscan; assay type: binding; settings: 2000 nM
T6 construct: DNA label (for qPCR read-out); purchased DiscoveRx (KINOMEscan scanMAX service)

MYLK4 = target: T7, MYLK4 (Homo sapiens, UniProt Q86YV6); test: KINOMEscan; assay type: binding; settings: 2000 nM
T7 construct: DNA label (for qPCR read-out); purchased KINOMEscan scanMAX panel (DiscoveRx)

[3] = target: T8, JAK1(JH2domain-pseudokinase) (Homo sapiens, UniProt P23458); test: KINOMEscan; assay type: binding; settings: 2000 nM
T8 construct: JAK1(JH2domain-pseudokinase); DNA label (for qPCR read-out); purchased DiscoveRx (KINOMEscan scanMAX panel)

EGFR(E746-A750del) = target: T9, EGFR(E746-A750del) (Homo sapiens, UniProt P00533, DEL746-750); test: KINOMEscan; assay type: binding; settings: 2000 nM
T9 construct: purchased DiscoveRx (KINOMEscan scanMAX panel)

RET = target: T10, RET (Homo sapiens, UniProt P07949); test: KINOMEscan; assay type: binding; settings: 2000 nM
T10 construct: purchased DiscoveRx (KINOMEscan scanMAX panel)

IRAK3 = target: T11, IRAK3 (Homo sapiens, UniProt Q9Y616); test: KINOMEscan; assay type: binding; settings: 2000 nM
T11 construct: DNA label (qPCR read-out); purchased KINOMEscan (DiscoveRx) ScanMAX panel

ERBB3 = target: T12, ERBB3 (Homo sapiens, UniProt P21860); test: KINOMEscan; assay type: binding; settings: 2000 nM
T12 construct: DNA label (qPCR read-out); purchased DiscoveRx (KINOMEscan ScanMAX panel)

GSK3A = target: T13, GSK3A (Homo sapiens, UniProt P49840); test: Kd Elect binding assay (DiscoverX); settings: duplicates
T13 construct: DNA label (qPCR read-out); purchased DiscoverX (assay service)
Text: (§1) Nat. Biotechnol. 23, 329-336 (2005).

RIOK2 = target: T14, RIOK2 (Homo sapiens, UniProt Q9BVS4); test: Kd Elect binding assay (DiscoverX); settings: duplicates
T14 construct: DNA label (qPCR read-out); purchased DiscoverX (assay service)
Text: as §1

CDK19 = target: T15, CDK19 (Homo sapiens, UniProt Q9BWU1); test: Kd Elect binding assay (DiscoverX); settings: duplicates
T15 construct: DNA label (qPCR read-out); purchased DiscoverX (assay service)
Text: as §1

CSNK1A1 = target: T16, CSNK1A1 (Homo sapiens, UniProt P48729); test: Kd Elect binding assay (DiscoverX); settings: duplicates
T16 construct: DNA label (qPCR read-out); purchased DiscoverX (assay service)
Text: as §1

CDK8 = target: T17, CDK8 (Homo sapiens, UniProt P49336); test: Kd Elect binding assay (DiscoverX); settings: duplicates
T17 construct: DNA label (qPCR read-out); purchased DiscoverX (assay service)
Text: as §1

[4] = test system: NFκB activation in CDK8/19-deficient cells; test: NFκB reporter assay in CDK8/19 double-knockout 293 reporter cells; settings: CDK8/19 double-knockout reporter cells
MYC-CaP-CR tumors = test: MYC-CaP-CR subcutaneous tumors in intact FVB male mice; assay type: in vivo, mouse; settings: intact (uncastrated) FVB male mice
[5] = test system: 4T1 murine triple-negative breast cancer; test: 4T1 TNBC lung metastasis survival after primary tumor removal; assay type: in vivo, mouse; settings: 25 mg/kg oral b.i.d. after removal of primary tumor
[6] = test system: CRPC cell line 22rv1 xenograft; test: 22rv1 CRPC xenograft in castrated male nude mice; assay type: in vivo, mouse; settings: 50 mg/kg orally daily
Description: In another in vivo study, CRPC cell line 22rv1 was grown as a xenograft in castrated male nude mice.

[7] = test system: PSA expression in CRPC cell line C4-2; test: PSA expression in C4-2 cell culture supernatant; assay type: cell-based; settings: C4-2, 96 h, read-out: IC50, suppression of PSA expression
Text: CDK8/19 inhibition decreases the expression of certain androgen-receptor (AR) inducible genes including PSA, the most common marker of prostate cancer, and the growth of castration-refractory prostate cancers (CRPC).

[8] = test system: alkaline phosphatase (ALPase) in bone marrow stromal cell line ST2; settings: concentration that enhances ALPase activity to 200% of control; ST2 cells; Saito (2013); cited from earlier work
[9] = Long-term MTD study, medicated diet, CD-1 mice; assay type: in vivo, mouse; settings: female CD-1 mice, 1000 ppm medicated diet, first week
Description: In another long-term MTD in vivo assay, groups of male and female CD-1 mice were fed regular diet (control) or 15u-medicated diet (500 ppm or 1000 ppm) for 4 or 5 weeks (FIG. 12B). The daily doses of 500 ppm and 1000 ppm groups were estimated to be about 50-100 mg/kg and 100-200 mg/kg, respectively, based on daily diet consumption.

[10] = test system: MDA-MB-468 triple-negative breast cancer (TNBC) cells; test: MDA-MB-468 long-term treatment in vitro; assay type: cell-based, Human
MV4-11 cells = test: MV4-11-Luc proliferation assay; settings: Homo sapiens, MV4-11, read-out: Inhibition Potency MV4-11-Luc Assay

T4 sequence (Q5VT25 whole entry): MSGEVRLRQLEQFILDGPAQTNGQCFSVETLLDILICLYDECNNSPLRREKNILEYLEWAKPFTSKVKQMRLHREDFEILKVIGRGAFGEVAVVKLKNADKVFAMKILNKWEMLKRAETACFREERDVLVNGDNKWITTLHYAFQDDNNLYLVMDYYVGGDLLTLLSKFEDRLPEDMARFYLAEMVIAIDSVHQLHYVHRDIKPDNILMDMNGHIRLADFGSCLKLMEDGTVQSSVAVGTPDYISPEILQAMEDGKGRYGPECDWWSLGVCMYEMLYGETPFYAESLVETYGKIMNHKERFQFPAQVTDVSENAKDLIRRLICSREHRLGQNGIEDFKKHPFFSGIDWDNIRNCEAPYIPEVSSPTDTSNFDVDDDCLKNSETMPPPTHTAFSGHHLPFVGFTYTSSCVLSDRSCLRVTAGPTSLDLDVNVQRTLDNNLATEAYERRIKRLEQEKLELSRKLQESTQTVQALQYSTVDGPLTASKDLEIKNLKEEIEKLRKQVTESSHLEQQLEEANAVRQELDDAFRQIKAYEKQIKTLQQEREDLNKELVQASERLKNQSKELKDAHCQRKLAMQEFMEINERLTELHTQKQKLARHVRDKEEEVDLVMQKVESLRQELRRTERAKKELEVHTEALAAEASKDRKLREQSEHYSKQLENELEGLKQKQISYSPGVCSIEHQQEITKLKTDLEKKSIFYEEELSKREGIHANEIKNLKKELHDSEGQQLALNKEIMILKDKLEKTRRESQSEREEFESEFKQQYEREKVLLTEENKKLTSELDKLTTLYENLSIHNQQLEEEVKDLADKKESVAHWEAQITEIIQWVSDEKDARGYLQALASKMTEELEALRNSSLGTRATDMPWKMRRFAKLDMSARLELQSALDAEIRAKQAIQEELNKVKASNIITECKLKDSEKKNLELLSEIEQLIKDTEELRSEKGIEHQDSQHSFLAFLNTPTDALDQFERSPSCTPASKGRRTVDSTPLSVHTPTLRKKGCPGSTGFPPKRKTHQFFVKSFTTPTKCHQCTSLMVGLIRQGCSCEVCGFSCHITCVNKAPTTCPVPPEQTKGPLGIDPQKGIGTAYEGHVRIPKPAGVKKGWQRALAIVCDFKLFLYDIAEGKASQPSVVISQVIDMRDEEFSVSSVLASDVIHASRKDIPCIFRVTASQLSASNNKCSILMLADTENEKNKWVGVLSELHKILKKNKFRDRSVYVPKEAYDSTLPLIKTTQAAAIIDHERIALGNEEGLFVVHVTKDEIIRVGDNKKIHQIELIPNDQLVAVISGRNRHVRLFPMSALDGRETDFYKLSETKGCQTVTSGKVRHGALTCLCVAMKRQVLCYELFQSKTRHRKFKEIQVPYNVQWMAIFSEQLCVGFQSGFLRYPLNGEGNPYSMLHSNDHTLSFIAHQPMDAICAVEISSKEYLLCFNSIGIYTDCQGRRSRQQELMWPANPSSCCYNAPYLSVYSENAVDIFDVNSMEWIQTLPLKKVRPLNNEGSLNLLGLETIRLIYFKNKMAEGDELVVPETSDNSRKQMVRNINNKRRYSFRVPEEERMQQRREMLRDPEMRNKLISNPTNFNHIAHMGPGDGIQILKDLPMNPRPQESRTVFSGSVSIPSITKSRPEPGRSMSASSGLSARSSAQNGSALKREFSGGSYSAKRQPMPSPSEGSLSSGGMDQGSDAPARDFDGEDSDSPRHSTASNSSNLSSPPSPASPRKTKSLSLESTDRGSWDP
T10 sequence (P07949 29-1114): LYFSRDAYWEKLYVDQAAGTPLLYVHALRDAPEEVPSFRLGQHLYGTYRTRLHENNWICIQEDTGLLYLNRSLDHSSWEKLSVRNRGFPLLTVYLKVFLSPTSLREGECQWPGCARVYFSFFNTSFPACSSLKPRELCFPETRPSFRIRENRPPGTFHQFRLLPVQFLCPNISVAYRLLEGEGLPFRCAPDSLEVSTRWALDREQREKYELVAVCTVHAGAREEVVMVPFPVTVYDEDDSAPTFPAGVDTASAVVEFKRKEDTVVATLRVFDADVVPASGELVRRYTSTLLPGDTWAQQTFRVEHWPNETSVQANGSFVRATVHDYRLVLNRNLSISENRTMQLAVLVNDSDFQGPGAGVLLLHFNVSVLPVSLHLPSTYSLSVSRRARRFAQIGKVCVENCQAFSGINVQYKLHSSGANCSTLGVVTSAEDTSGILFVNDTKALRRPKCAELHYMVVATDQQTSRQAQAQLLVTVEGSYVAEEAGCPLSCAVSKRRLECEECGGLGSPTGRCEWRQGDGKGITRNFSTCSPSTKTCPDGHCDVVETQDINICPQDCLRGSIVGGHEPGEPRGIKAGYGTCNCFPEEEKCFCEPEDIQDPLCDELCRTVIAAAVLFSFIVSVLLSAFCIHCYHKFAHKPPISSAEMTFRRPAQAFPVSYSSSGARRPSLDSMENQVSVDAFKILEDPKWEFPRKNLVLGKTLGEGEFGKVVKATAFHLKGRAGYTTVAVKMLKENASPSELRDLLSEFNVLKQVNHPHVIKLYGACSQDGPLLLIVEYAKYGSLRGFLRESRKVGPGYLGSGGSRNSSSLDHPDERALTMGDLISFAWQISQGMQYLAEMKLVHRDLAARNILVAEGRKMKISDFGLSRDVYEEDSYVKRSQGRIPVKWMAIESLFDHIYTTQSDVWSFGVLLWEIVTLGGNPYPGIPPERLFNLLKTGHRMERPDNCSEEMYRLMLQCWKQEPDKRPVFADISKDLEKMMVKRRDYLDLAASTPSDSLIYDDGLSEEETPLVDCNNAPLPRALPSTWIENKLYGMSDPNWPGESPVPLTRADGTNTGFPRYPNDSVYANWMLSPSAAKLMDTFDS
T12 sequence (P21860 20-1342): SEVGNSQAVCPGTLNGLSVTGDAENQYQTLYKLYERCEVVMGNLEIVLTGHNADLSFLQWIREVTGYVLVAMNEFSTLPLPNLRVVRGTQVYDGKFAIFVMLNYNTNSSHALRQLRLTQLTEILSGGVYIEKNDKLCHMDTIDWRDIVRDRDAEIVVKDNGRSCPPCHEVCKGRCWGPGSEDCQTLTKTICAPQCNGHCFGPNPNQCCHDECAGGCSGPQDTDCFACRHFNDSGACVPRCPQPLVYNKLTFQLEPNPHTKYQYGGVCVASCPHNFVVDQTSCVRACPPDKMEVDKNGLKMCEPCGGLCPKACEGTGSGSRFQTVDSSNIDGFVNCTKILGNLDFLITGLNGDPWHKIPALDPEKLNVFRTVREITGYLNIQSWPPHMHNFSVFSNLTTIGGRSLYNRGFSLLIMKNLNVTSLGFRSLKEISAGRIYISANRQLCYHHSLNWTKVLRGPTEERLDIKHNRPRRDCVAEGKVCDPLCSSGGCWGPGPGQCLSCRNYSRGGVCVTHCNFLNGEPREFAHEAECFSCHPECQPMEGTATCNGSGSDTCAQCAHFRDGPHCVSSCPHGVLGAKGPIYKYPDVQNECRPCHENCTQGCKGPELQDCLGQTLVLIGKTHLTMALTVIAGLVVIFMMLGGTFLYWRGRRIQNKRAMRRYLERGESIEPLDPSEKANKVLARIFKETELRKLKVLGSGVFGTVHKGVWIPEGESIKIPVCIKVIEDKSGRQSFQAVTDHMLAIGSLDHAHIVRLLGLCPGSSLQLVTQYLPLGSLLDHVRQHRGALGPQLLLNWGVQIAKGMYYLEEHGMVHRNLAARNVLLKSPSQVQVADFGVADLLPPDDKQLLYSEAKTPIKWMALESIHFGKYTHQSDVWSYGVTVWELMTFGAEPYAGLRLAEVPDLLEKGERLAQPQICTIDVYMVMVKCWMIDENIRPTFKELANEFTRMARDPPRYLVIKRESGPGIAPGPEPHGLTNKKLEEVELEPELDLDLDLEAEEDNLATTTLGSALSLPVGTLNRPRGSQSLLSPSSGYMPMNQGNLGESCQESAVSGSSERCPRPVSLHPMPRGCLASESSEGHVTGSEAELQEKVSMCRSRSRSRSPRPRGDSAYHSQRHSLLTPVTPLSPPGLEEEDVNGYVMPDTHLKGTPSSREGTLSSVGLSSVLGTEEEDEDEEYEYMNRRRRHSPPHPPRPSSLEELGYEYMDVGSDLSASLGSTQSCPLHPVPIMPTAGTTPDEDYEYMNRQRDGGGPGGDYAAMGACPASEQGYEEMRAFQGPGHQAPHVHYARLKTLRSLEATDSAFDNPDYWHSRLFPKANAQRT
T3 sequence (Q9NYY3 whole entry): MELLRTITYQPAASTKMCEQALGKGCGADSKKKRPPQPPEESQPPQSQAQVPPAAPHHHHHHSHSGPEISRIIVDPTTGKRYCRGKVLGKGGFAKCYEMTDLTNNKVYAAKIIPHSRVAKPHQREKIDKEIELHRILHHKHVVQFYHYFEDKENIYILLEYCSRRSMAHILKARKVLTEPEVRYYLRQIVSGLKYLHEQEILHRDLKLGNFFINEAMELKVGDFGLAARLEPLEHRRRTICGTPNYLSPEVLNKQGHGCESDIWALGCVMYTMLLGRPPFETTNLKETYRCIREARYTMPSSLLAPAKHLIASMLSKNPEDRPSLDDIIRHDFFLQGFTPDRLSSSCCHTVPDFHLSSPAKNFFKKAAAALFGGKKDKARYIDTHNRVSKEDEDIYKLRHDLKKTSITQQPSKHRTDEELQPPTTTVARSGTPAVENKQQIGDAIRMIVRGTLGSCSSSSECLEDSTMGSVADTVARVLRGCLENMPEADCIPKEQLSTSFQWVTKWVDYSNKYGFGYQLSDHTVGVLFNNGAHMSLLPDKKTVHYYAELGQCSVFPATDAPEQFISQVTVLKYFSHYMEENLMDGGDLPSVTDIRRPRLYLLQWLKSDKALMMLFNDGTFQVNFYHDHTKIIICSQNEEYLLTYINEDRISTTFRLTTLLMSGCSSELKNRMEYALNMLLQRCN
T8 sequence (P23458 583-855 limits assumed): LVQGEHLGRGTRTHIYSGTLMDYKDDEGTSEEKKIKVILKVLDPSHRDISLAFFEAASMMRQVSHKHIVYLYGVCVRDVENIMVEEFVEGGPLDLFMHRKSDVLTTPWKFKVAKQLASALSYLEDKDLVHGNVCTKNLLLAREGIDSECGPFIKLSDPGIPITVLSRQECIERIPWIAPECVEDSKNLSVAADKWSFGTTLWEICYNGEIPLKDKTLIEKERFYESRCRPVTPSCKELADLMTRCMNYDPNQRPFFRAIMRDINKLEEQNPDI

Structure (SMILES)	% Ctrl (VPS34)	% Ctrl (SIK)	% Ctrl (PLK2)	% Ctrl (MRCKA)	% Ctrl [2]	% Ctrl (PHKG1)	% Ctrl (MYLK4)	% Ctrl [3]	% Ctrl (EGFR(E746-A750del))	% Ctrl (RET)	% Ctrl (IRAK3)	% Ctrl (ERBB3)	also measured
[2H]C([2H])([2H])N(C(=O)c1ccc(N2CCCN(c3ccnc4sc(C(N)=O)c(N)c34)CC2)cc1)C([2H])([2H])[2H] [15u_D6, 3-amino-4-(4-(4-(bis(methyl-d3)carbamoyl)phenyl)-1,4-diazepan-1-yl)thieno[2,3-b]pyridine-2-carboxamide]	65 % Ctrl	79 % Ctrl	86 % Ctrl	100 % Ctrl	77 % Ctrl	97 % Ctrl	94 % Ctrl	89 % Ctrl	100 % Ctrl	86 % Ctrl	89 % Ctrl	88 % Ctrl	PK (AUC 0-8 h) versus undeuterated parent [1]: slightly improved the PK
CN(C)C(=O)c1ccc(N2CCCN(c3ccnc4sc(C(N)=O)c(N)c34)CC2)cc1 [15u, 3-amino-4-(4-(4-(dimethylcarbamoyl)phenyl)-1,4-diazepan-1-yl)thieno[2,3-b]pyridine-2-carboxamide]	85 % Ctrl	84 % Ctrl	100 % Ctrl	94 % Ctrl	99 % Ctrl	94 % Ctrl	100 % Ctrl	89 % Ctrl	100 % Ctrl	93 % Ctrl	93 % Ctrl	100 % Ctrl	Kd (GSK3A): 5600 nM; Kd (RIOK2): 240 nM; Kd (CDK19): 65 nM; Kd (CSNK1A1): 230 nM; Kd (CDK8): 78 nM; effect on NFκB activation in CDK8/19-deficient cells [4]: no effect; tumor volume and weight (MYC-CaP-CR tumors): modest effect; mouse survival of the metastatic disease [5]: significantly increased mouse survival; adverse effects and body weight [6]: no apparent adverse effects and no diminution of mouse body weight; xenograft tumor growth [6]: strongly suppressed the tumor growth; IC50 [7]: 27.6 nM; ALP activity Assay EC200 [8]: 31.9 nM; weight loss [9]: 5-10%; response upon long-term treatment in vitro [10]: responsive; IC50 (MV4-11 cells): 30 nM
